Data set [1] addresses T1, CXCR3 (Homo sapiens, UniProt P49682).
T1 construct: ChemoCentryx
T1 sequence (P49682 1-368): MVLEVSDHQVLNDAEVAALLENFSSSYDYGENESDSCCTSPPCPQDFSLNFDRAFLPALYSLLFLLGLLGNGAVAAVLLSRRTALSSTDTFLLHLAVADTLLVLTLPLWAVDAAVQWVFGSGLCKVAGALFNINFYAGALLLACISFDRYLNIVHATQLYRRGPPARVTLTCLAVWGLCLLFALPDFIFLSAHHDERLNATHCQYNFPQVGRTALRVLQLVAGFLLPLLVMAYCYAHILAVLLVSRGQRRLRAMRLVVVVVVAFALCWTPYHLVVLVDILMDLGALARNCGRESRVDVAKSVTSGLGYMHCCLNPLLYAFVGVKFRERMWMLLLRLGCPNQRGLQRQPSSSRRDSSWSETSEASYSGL
The experiment in a line: CXCR3 binding assay in binding buffer (125I-labelled chemokine, CXCR3-expressing cells). The note with it: absence of human plasma. The procedure:
(§1) CXCR3 Binding Assay: CXCR3 binding assays were conducted as previously described (see, e.g., Example 12 in WO 02/083143, incorporated herein by reference in its entirety), in the absence (“binding buffer”) or presence of human plasma. Unless otherwise noted, all reagents used are available from commercial sources (e.g., Sigma-Aldrich, St. Louis, Mo., USA). Test compounds are diluted in DMSO to a concentration that is 40-times the intended final assay concentration; 5 μL are transferred to each well of a 96-well flat-bottomed polypropylene plate (e.g., from Greiner, Inc.). CXCR3-expressing cells obtained from ChemoCentryx were used in the assays to generate the data set forth below. The cells were resuspended in assay buffer (25 mM Hepes, 80 mM NaCl, 1 mM CaCl2, 5 mM MgCl2, 0.2% bovine serum albumin, pH 7.1, stored at 4° C.) at 5 million cells per mL; 100 μL of this cell suspension is then transferred to each well of a 96-well plate containing the diluted test compounds. ^125I-labelled chemokine (purchased from commercial sources, e.g., Amersham, PE Life Sciences) is diluted in assay buffer to a concentration of approximately […]; 100 μL of this chemokine solution is transferred to each well of a 96-well plate containing compounds and cell suspension. The plates are sealed with commercially available foil plate seals (e.g., from E&K Scientific), and stored at 4° C. for a period of 2 to 4 h, shaking gently. At the end of this incubation period, the contents of the assay plates are transferred to GF/B filter plates (Packard) that have been pre-coated by dipping into a solution containing 0.3% polyethyleneimine (Sigma-Aldrich), using a cell harvester (Packard), and washing twice with wash buffer (25 mM Hepes, 500 mM NaCl, 1 mM CaCl2, 5 mM MgCl2, pH 7.1, stored at room temperature). The filter plates are sealed on the bottom with plate seals (Packard), 50 μL of Microscint-20 scintillation fluid (Packard) is added to each well, and the top of the plates are sealed with clear plastic (TopSeal A, Packard). The plates are counted on a scintillation counter, such as a Packard TopCount. To measure non-specific binding, 4 wells containing unlabelled “cold” chemokine were included on each 96-well plate. To measure maximum binding, 4 wells containing 5 μL of DMSO, 100 μL of cell suspension and 100 μL of ^125I-labelled chemokine solution were included on each 96-well plate. Data were analyzed using commercially available software (e.g., Excel from Microsoft, Prism from GraphPad Software Inc.).

The subject of data set [2] is Human peripheral blood mononuclear cells (PBMCs). The data set is described as follows: I-TAC migration assay. In kind it is cell-based. The note with it: PBMC; activated human PBMCs, human ITAC, in human plasma. The procedure: I-TAC migration assay: Human peripheral blood mononuclear cells (PBMCs) were activated with OKT3 (purified by AB solutions from hybridoma cell line OKT3 (ATCC CRL-8001)) and IL-2 (Peprotech, Inc., Rocky Hill, N.J., USA). After fourteen days, the cells were loaded with chloromethyl-fluoroscein-diacetate (CMFDA) (Molecular Probes, Inc.) by incubating the activated PBMCs in 1 ng/mL CMFDA for >1.5 hours at 37° C. in a tissue culture incubator. While cells were loading, the test compounds were diluted in DMSO to a concentration that is 100-times the intended final assay concentration. Next, 100 ng/mL of human ITAC (Peprotech) in human plasma (EDTA, drug free, Biological Specialty Corp) was prepared. Test compounds were added to the human ITAC preparation. Cells were washed once in prewarmed (37° C.) RPMI (Invitrogen) media with 0.5% BSA and resuspended to 5 million cells/ml in human plasma. The test compounds were added to the PBMCs. A 96-well chemotaxis migration plate (NeuroProbe, Inc.) was assembled by adding, per well, 30 uL of ITAC/compound mixture in the lower chamber, placing the […] membrane on top of the ITAC/compound well, and adding 50 uL of the PBMC/compound mixture to the well. The plates were covered and incubated in a humidified tissue culture incubator for 2.5 hours. A standard curve of CMFDA-loaded cells to be used as a reference for the test plates was prepared. Migration plates were disassembled and are read in a fluorometric plate reader set to 475 nm absorbance, 517 nm emission. The fluorometric reading was converted to cell number using the standard curve and calculating the percentage of migrating cells.

Data set [3] has as its target T1, CXCR3. The data set is described as follows: CXCR3 binding assay in presence of human plasma. The procedure: as §1
Data set [4] relates to CYP3A4. The experiment in a line: Time dependent CYP inhibition assay (midazolam, pooled human liver microsomes). The note with it: preincubation with NADPH, midazolam marker substrate. (Microsomes from liver hold many membrane-bound enzymes, among them those of drug oxidation.)
Experimental: (§3) CYP Inhibition Assay: Time dependent CYP inhibition assays were initiated by incubating a test compound in 0.1 mM phosphate buffer containing pooled human liver microsomes (1 mg/mL protein) in the presence of NADPH for 0, 15 and 30 minutes. At each time point, an aliquot of the preincubation mixture was removed and added to 0.1 mM phosphate buffer containing marker substrate (midazolam) and fresh NADPH. The residual CYP activity, after the preincubation times of 0, 15, and 30 minutes, was monitored for 5 minutes. Data are expressed as the % 1-OH midazolam formation at 15 minutes compared to that formed at 0 minutes. […] DMSO (vehicle control) caused an approximate 10% drop in CYP activity over 15 minutes.
Data set [5] is described as follows: Rat PK PO. In kind it is in vivo. The note with it: Sprague-Dawley, plasma; for bioavailability: read-out: Rat PK PO F %. The protocol:
In Vivo Metabolic Evaluation in Rat: To study the metabolic fate of test compounds in vivo, Sprague-Dawley (SD) rats were administered (orally gavage) test compound in suspension. Blood samples (˜0.3 mL/timepoint) were collected at 1, 2, 4, 8, 24, 30 and 48 hours post-dose into EDTA containing tubes. All blood samples were collected via tail artery venipuncture under isofluorane anesthesia. Blood samples were processed for plasma by centrifugation and stored frozen until analysis (−20° to −70° C.). Samples were analyzed using a sensitive and selective LC/MS/MS method. Briefly, samples were prepared for analysis using protein precipitation. An aliquot of the resulting supernatant was subjected to LC/MS/MS analysis. Separation of the analytes from endogenous material was achieved using an reverse phase HPLC. Column effluent was monitored using a Sciex API 365 triple quadrapole mass spectrometer with a Sciex TurboIon Spray probe. Unknown concentrations of testing articles were determined using a calibration curve from 1 to 2000 ng/mL.
(§2) Pharmacokinetics of exemplary compounds of the invention was assessed in rats.

Data set [6] is described as follows: Rat PK (IV). The conditions noted are these: in vivo. The protocol:
as §2

The subject of data set [7] is CYP3A4. The note with it: microsomes.
Experimental: as §3

Here are results for 11 molecules from patent US7799795B2, “Aryl nitrile compounds and compositions and their uses in treating inflammatory and related disorders” (Amgen Inc., priority 2005, dated 2010).

Each structure is given as a SMILES string. Where two headings read alike, the source gives them in different places.

In the case of `CCOc1ccc(-n2c([C@@H](C)N(CCS(=O)(=O)CC)C(=O)Cc3ccc(F)c(C(F)(F)F)c3)nc3ncccc3c2=O)cc1`, the figures for the IC50 in data set [1], in data set [2] and in data set [3] were 1 nM, 22 nM and 7 nM, respectively.

Take `CCS(=O)(=O)CCN(C(=O)Cc1ccc(F)c(C(F)(F)F)c1)[C@H](C)c1nc2ncccc2c(=O)n1-c1ccc(O)cc1`: the “Time Dependent CYP3A4 Inhibition” value in data set [4] was “Yes”.

For the molecule `CCOc1ccc(-c2c([C@@H](C)N(CCS(=O)(=O)CC)C(=O)Cc3ccc(F)c(C(F)(F)F)c3)nc3ccccn3c2=O)cc1`, the figures for the IC50 in data set [1], in data set [2] and in data set [3] were 1 nM, 183 nM and 57 nM, respectively.

As to `CCS(=O)(=O)CCN(C(=O)Cc1ccc(F)c(C(F)(F)F)c1)[C@H](C)c1nc2ccccn2c(=O)c1-c1ccc(O)cc1`, the results for the IC50 in data set [1] and in data set [3] were 816 nM and 4080 nM, respectively. For the same molecule, the “Time Dependent CYP3A4 Inhibition” value in data set [4] is given as “Yes”.

As for `CCS(=O)(=O)CCN(C(=O)Cc1ccc(F)c(C(F)(F)F)c1)[C@H](C)c1nc2ccccn2c(=O)c1-c1ccc(C#N)cc1`, 41 nM corresponded to half-maximal inhibition in data set [2] (IC50).

Regarding `CCOc1ccc(-c2c([C@@H](C)N(CCS(=O)(=O)CC)C(=O)Cc3ccc(F)c(C(F)(F)F)c3)nc3ncccn23)cc1`, the IC50 in data set [1] is 4 nM; in data set [2] it was 1500 nM; in data set [3], 70 nM.

With `CCS(=O)(=O)CCN(C(=O)Cc1ccc(F)c(C(F)(F)F)c1)[C@H](C)c1nc2ncccn2c1-c1ccc(O)cc1`, the IC50 in data set [1] and in data set [3] was 10000 nM in each case. The “Time Dependent CYP3A4 Inhibition” value in data set [4] is listed as “Yes”.

In the case of `CCS(=O)(=O)CCN(C(=O)Cc1ccc(F)c(C(F)(F)F)c1)[C@H](C)c1nc2ncccn2c1-c1ccc(C#N)cc1`, the IC50 amounted to 10 nM in data set [1], 83 nM in data set [2] and 49 nM in data set [3].

In the case of `CCS(=O)(=O)CCN(C(=O)Cc1ccc(C(F)(F)F)c(F)c1)[C@H](C)c1nc2ncccn2c(=O)c1-c1ccc(C#N)cc1`, in data set [5], the MRT is 3.96 h and the bioavailability is 24%. The Vd in data set [6] (read-out: Rat PK(IV) Vdss) turned out to be 0.31 L/kg.

For `CCS(=O)(=O)CCN(C(=O)Cc1ccc(F)c(C(F)(F)F)c1)[C@H](C)c1nc2ncccc2c(=O)n1-c1ccc(C#N)cc1` [drawing 192], in data set [7], the “Time Dependent CYP3A4 Inhibition” value is “NO”. The same molecule yielded an IC50 in data set [2] of 120 nM.

In the case of `CCS(=O)(=O)CCN(C(=O)Cc1ccc(F)c(C(F)(F)F)c1)[C@H](C)c1nc2ncccc2c(=O)n1-c1ccc(C#N)cc1` [drawing 199], in data set [5], the MRT amounted to 1.5 h and the bioavailability stood at 47.2%. Also, the clearance in data set [6] (read-out: Rat PK(IV) Cl (converted)) is 39.7 mL/min/kg.

One may read the IC50 as the concentration that inhibits the measured activity by half. Broadly, the MRT is a mean duration of stay, worked out from the concentration-time curve.
